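Compound exposure: 48 hours, 5 concentrations, 96-well plates. GI50 marks 50% less growth.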 Calls of active or inactive are those of the source. No stated cut-off is given here; in the data, active = GI50 up to about 1.1 µM and inactive = higher.
Tests used:
Assay in all cases: DTP human tumour cell line panel, 48 h
Malme-3M = tested on: Malme-3M
OVCAR-3 = tested on: OVCAR-3
UACC-257 = tested on: UACC-257
MDA-MB-231 = tested on: MDA-MB-231
ACHN = tested on: ACHN
OVCAR-8 = tested on: OVCAR-8
MCF7 = tested on: MCF7
SN12C = tested on: SN12C
KM12 = tested on: KM12
RXF 393 = tested on: RXF 393
LOX IMVI = tested on: LOX IMVI
IGROV-1 = tested on: IGROV-1
NCI/ADR-RES = tested on: NCI/ADR-RES
NCI-H23 = tested on: NCI-H23
HT-29 = tested on: HT-29
CAKI-1 = tested on: CAKI-1
SF-268 = tested on: SF-268
OVCAR-4 = tested on: OVCAR-4
TK-10 = tested on: TK-10
M14 = tested on: M14
SK-OV-3 = tested on: SK-OV-3
COLO 205 = tested on: COLO 205
SK-MEL-5 = tested on: SK-MEL-5
SF-295 = tested on: SF-295
BT-549 = tested on: BT-549
K562 = tested on: K562
SNB-75 = tested on: SNB-75
SW-620 = tested on: SW-620
HOP-92 = tested on: HOP-92
UACC-62 = tested on: UACC-62
NCI-H522 = tested on: NCI-H522
HCC 2998 = tested on: HCC 2998
MDA-MB-435 = tested on: MDA-MB-435
HCT-116 = tested on: HCT-116
U-251 = tested on: U-251
A498 = tested on: A498
DU-145 = tested on: DU-145
HL-60 = tested on: HL-60
CCRF-CEM = tested on: CCRF-CEM
A549 = tested on: A549
Hs-578T = tested on: Hs-578T
NCI-H460 = tested on: NCI-H460
HOP-62 = tested on: HOP-62
SNB-19 = tested on: SNB-19
OVCAR-5 = tested on: OVCAR-5
NCI-H226 = tested on: NCI-H226
SK-MEL-28 = tested on: SK-MEL-28
EKVX = tested on: EKVX
UO-31 = tested on: UO-31
HCT-15 = tested on: HCT-15
PC-3 = tested on: PC-3
786-0 = tested on: 786-0
MOLT-4 = tested on: MOLT-4
SF-539 = tested on: SF-539
T47D = tested on: T47D
SR = tested on: SR
RPMI-8226 = tested on: RPMI-8226
SK-MEL-2 = tested on: SK-MEL-2

Question: What does the source list for `Cc1cc2c(cc1Cl)SC(N/N=C(\N)c1ccc(Cl)cc1)=NS2(=O)=O`?
Answer: GI50 (Malme-3M): 38.1 µM (inactive); GI50 (OVCAR-3): 34.7 µM (inactive); GI50 (UACC-257): 62.7 µM (inactive); GI50 (MDA-MB-231): 76.6 µM (inactive); GI50 (ACHN): 84.3 µM (inactive); GI50 (OVCAR-8): 45.4 µM (inactive); GI50 (MCF7): 14.1 µM (inactive); GI50 (SN12C): 78.3 µM (inactive); GI50 (KM12): 35.2 µM (inactive); GI50 (RXF 393): 90.2 µM (inactive); GI50 (LOX IMVI): 43 µM (inactive); GI50 (IGROV-1): 31 µM (inactive); GI50 (NCI/ADR-RES): > 100 µM (inactive); GI50 (NCI-H23): 30.7 µM (inactive); GI50 (HT-29): 52.8 µM (inactive); GI50 (CAKI-1): > 100 µM (inactive); GI50 (SF-268): 45.6 µM (inactive); GI50 (OVCAR-4): 75.2 µM (inactive); GI50 (TK-10): > 100 µM (inactive); GI50 (M14): 81.5 µM (inactive); GI50 (SK-OV-3): > 100 µM (inactive); GI50 (COLO 205): 42.3 µM (inactive); GI50 (SK-MEL-5): > 100 µM (inactive); GI50 (SF-295): 71.3 µM (inactive); GI50 (BT-549): 46.7 µM (inactive); GI50 (K562): 44 µM (inactive); GI50 (SNB-75): 74.5 µM (inactive); GI50 (SW-620): 25.8 µM (inactive); GI50 (HOP-92): 10.4 µM (inactive); GI50 (UACC-62): 59.7 µM (inactive); GI50 (NCI-H522): 30.6 µM (inactive); GI50 (HCC 2998): 40.6 µM (inactive); GI50 (MDA-MB-435): 61.8 µM (inactive); GI50 (HCT-116): 46.2 µM (inactive); GI50 (U-251): 44.7 µM (inactive); GI50 (A498): 32.9 µM (inactive); GI50 (DU-145): > 100 µM (inactive); GI50 (HL-60): 40.5 µM (inactive); GI50 (CCRF-CEM): 43.3 µM (inactive); GI50 (A549): 96.6 µM (inactive); GI50 (Hs-578T): 48.5 µM (inactive); GI50 (NCI-H460): 52.7 µM (inactive); GI50 (HOP-62): > 100 µM (inactive); GI50 (SNB-19): 77.4 µM (inactive); GI50 (OVCAR-5): > 100 µM (inactive); GI50 (NCI-H226): > 100 µM (inactive); GI50 (SK-MEL-28): 54.7 µM (inactive); GI50 (EKVX): 72.9 µM (inactive); GI50 (UO-31): 42.7 µM (inactive); GI50 (HCT-15): 46.5 µM; GI50 (PC-3): 41 µM (inactive); GI50 (786-0): 90.8 µM (inactive); GI50 (MOLT-4): 45.7 µM (inactive); GI50 (SF-539): 32.3 µM (inactive); GI50 (T47D): 53.3 µM (inactive)

Question: Which results are given for `CCOC(=O)[C@H]1C[C@@H](C(=O)c2ccccc2)N2N=C(c3ccc(Br)cc3)C=C[C@H]12`?
Answer: GI50 (OVCAR-3): > 100 µM (inactive); GI50 (UACC-257): > 100 µM (inactive); GI50 (MDA-MB-231): > 100 µM (inactive); GI50 (SR): 9.48 µM (inactive); GI50 (ACHN): > 100 µM (inactive); GI50 (OVCAR-8): > 100 µM (inactive); GI50 (MCF7): > 100 µM (inactive); GI50 (SN12C): > 100 µM (inactive); GI50 (KM12): > 100 µM (inactive); GI50 (RXF 393): > 100 µM (inactive); GI50 (LOX IMVI): > 100 µM (inactive); GI50 (NCI/ADR-RES): > 100 µM (inactive); GI50 (NCI-H23): > 100 µM (inactive); GI50 (CAKI-1): > 100 µM (inactive); GI50 (SF-268): > 100 µM (inactive); GI50 (OVCAR-4): > 100 µM (inactive); GI50 (TK-10): > 100 µM (inactive); GI50 (M14): > 100 µM (inactive); GI50 (SK-OV-3): > 100 µM (inactive); GI50 (COLO 205): > 100 µM (inactive); GI50 (SF-295): > 100 µM (inactive); GI50 (BT-549): > 100 µM (inactive); GI50 (K562): > 100 µM (inactive); GI50 (SNB-75): > 100 µM (inactive); GI50 (SW-620): > 100 µM (inactive); GI50 (UACC-62): > 100 µM (inactive); GI50 (HCC 2998): > 100 µM (inactive); GI50 (MDA-MB-435): > 100 µM (inactive); GI50 (HCT-116): > 100 µM (inactive); GI50 (U-251): > 100 µM (inactive); GI50 (RPMI-8226): > 100 µM (inactive); GI50 (A498): > 100 µM (inactive); GI50 (DU-145): > 100 µM (inactive); GI50 (A549): > 100 µM (inactive); GI50 (Hs-578T): > 100 µM (inactive); GI50 (NCI-H460): > 100 µM (inactive); GI50 (HOP-62): > 100 µM (inactive); GI50 (SNB-19): > 100 µM (inactive); GI50 (OVCAR-5): > 100 µM (inactive); GI50 (NCI-H226): > 100 µM (inactive); GI50 (SK-MEL-28): > 100 µM (inactive); GI50 (UO-31): > 100 µM (inactive); GI50 (HCT-15): > 100 µM; GI50 (PC-3): > 100 µM (inactive); GI50 (786-0): > 100 µM (inactive); GI50 (MOLT-4): 77.6 µM (inactive); GI50 (SK-MEL-2): > 100 µM (inactive); GI50 (T47D): > 100 µM (inactive)

Question: Which results are given for `COc1ccc(NC(=O)CC(=O)N2N=C(N3c4ccccc4Sc4ccccc43)CC2c2ccccc2)cc1` (stereo not drawn)?
Answer: GI50 (OVCAR-3): > 100 µM (inactive); GI50 (UACC-257): > 100 µM (inactive); GI50 (MDA-MB-231): > 100 µM (inactive); GI50 (SR): > 100 µM (inactive); GI50 (ACHN): > 100 µM (inactive); GI50 (OVCAR-8): > 100 µM (inactive); GI50 (MCF7): > 100 µM (inactive); GI50 (SN12C): > 100 µM (inactive); GI50 (KM12): > 100 µM (inactive); GI50 (RXF 393): > 100 µM (inactive); GI50 (IGROV-1): > 100 µM (inactive); GI50 (NCI/ADR-RES): > 100 µM (inactive); GI50 (NCI-H23): > 100 µM (inactive); GI50 (HT-29): > 100 µM (inactive); GI50 (CAKI-1): > 100 µM (inactive); GI50 (SF-268): 23.4 µM (inactive); GI50 (OVCAR-4): > 100 µM (inactive); GI50 (TK-10): > 100 µM (inactive); GI50 (M14): > 100 µM (inactive); GI50 (SK-OV-3): > 100 µM (inactive); GI50 (COLO 205): > 100 µM (inactive); GI50 (SK-MEL-5): > 100 µM (inactive); GI50 (SF-295): > 100 µM (inactive); GI50 (BT-549): > 100 µM (inactive); GI50 (K562): > 100 µM (inactive); GI50 (SNB-75): 47.6 µM (inactive); GI50 (SW-620): > 100 µM (inactive); GI50 (HOP-92): > 100 µM (inactive); GI50 (UACC-62): > 100 µM (inactive); GI50 (NCI-H522): > 100 µM (inactive); GI50 (HCC 2998): > 100 µM (inactive); GI50 (MDA-MB-435): > 100 µM (inactive); GI50 (HCT-116): > 100 µM (inactive); GI50 (U-251): > 100 µM (inactive); GI50 (RPMI-8226): > 100 µM (inactive); GI50 (DU-145): > 100 µM (inactive); GI50 (HL-60): > 100 µM (inactive); GI50 (CCRF-CEM): > 100 µM (inactive); GI50 (A549): > 100 µM (inactive); GI50 (Hs-578T): 39.7 µM (inactive); GI50 (NCI-H460): > 100 µM (inactive); GI50 (HOP-62): > 100 µM (inactive); GI50 (SNB-19): > 100 µM (inactive); GI50 (OVCAR-5): > 100 µM (inactive); GI50 (NCI-H226): > 100 µM (inactive); GI50 (SK-MEL-28): > 100 µM (inactive); GI50 (EKVX): > 100 µM (inactive); GI50 (UO-31): > 100 µM (inactive); GI50 (HCT-15): > 100 µM; GI50 (PC-3): > 100 µM (inactive); GI50 (786-0): > 100 µM (inactive); GI50 (MOLT-4): > 100 µM (inactive); GI50 (SK-MEL-2): > 100 µM (inactive); GI50 (SF-539): > 100 µM (inactive); GI50 (T47D): > 100 µM (inactive)

Reference: ChEMBL document CHEMBL1201862, “PubChem BioAssay data set” (2004)
